Assay results: patent US10342758B2, “Cationic lipid” (Kyowa Hakko Kirin Co., Ltd., priority 2012, dated 2019)

Assay: Average particle diameter of preparation (Zetasizer Nano ZS)
Assay type: physicochemical
Conditions: preparation with f7 siRNA
Protocol: The average particle diameter of each preparation (composition) was measured using a particle diameter measurement device (Zetasizer Nano ZS, manufactured by Malvern, hereafter the same).
The average particle diameter of each preparation (composition) was measured using a particle diameter measurement device.
Each sample was weighed and suspended in an aqueous solution containing hydrochloric acid and ethanol so that the ratio of Compound A-1/PEG-DMPE Na (manufactured by NOF Corporation) was 57.3/5.52 mmol/L, and then, the resulting mixture was repeatedly subjected to stirring using a vortex stirring mixer and heating, whereby a uniform suspension was obtained. This suspension was passed through a 0.2-μm polycarbonate membrane filter and thereafter passed through a 0.05-μm polycarbonate membrane filter at room temperature, whereby a dispersion liquid of particles (liposome) of Compound A-1/PEG-DMPE Na was obtained. The average particle diameter of the obtained liposome was measured using a particle diameter measuring apparatus to confirm that the average particle diameter was within the range from 30 nm to 100 nm. In the obtained dispersion liquid of liposome, the f7 siRNA solution was mixed at a ratio of the dispersion liquid of liposome to the fl siRNA solution of 3:1, and then, distilled water that was three times the amount was added thereto and mixed therewith, whereby a dispersion liquid of Compound A-1/PEG-DMPE Na/f7 siRNA complex was prepared.
The average particle diameter of the preparation (composition) was measured using a particle diameter measurement device.

[1] = compound/PEG-DMPE Na/DSPC/cholesterol=7.030/0.755/2.038/4.892 mmol/L, Example 54
[2] = liposome/siRNA complex encapsulated by lipid membrane, Examples 52, 53 / Comparative Example 3
[3] = compound/PEG-DMPE Na/DSPC/cholesterol, Examples 50, 51 / Comparative Example 2

| SMILES | Particle diameter of Preparation obtained [1] [nm] | Particle diameter of Preparation obtained [2] [nm] | Particle diameter of Preparation obtained [3] [nm] |
| --- | --- | --- | --- |
| CCCCC/C=C\C/C=C\CCCCCCCCN(CCCCCCCC/C=C\C/C=C\CCCCC)C(=O)OCCCN1CCCCC1 [Compound A-7, 3-(Piperidin-1-yl)propyl di((9Z,12Z)-octadeca-9,12-dienyl)carbamate] | 123.3 | 94.6 |  |
| CCCCC/C=C\C/C=C\CCCCCCCCN(CCCCCCCCCCCC)C(=O)OCCCN(C)C [Compound A-9, 3-(Dimethylamino)propyl dodecyl((9Z,12Z)-octadeca-9,12-dienyl) carbamate] |  |  | 116.4 |
| CCCCC/C=C\C/C=C\CCCCCCCCN(CCCCCCCCCC)C(=O)OCCCN(C)C [Compound A-10, 3-(Dimethylamino)propyl decyl((9Z,12Z)-octadeca-9,12-dienyl)carbamate] | 156.2 | 123.1 | 148.7 |
| CCCCC/C=C\C/C=C\CCCCCCCCN(CCCCCCCC)C(=O)OCCCN(C)C [Compound A-11, 3-(Dimethylamino)propyl ((9Z,12Z)-octadeca-9,12-dienyl)(octyl)carbamate] |  |  | 153.4 |
| CCCCC/C=C\C/C=C\CCCCCCCCN(CCCCCCCC/C=C\C/C=C\CCCCC)C(=O)OCC1CCN(C)CC1 [Compound A-14, (1-Methylpiperidin-4-yl)methyl di((9Z,12Z)-octadeca-9,12-dien-1-yl)carbamate] |  | 99.7 | 134.4 |
| CCCCC/C=C\C/C=C\CCCCCCCCN(CCCCCCCC/C=C\C/C=C\CCCCC)C(=O)OCC1CCCN(C)C1 (stereo not shown) [Compound A-15] |  | 98.4 | 124.0 |
| CCCCC/C=C\C/C=C\CCCCCCCCN(CCCCCCCC/C=C\C/C=C\CCCCC)C(=O)OCC1CCCCN1C (stereo not shown) [Compound A-16, (1-Methylpiperidin-2-yl)methyl di((9Z,12Z)-octadeca-9,12-dien-1-yl)carbamate] |  | 105.5 | 133.4 |
| CCCCCCCC/C=C\CCCCCCCCN(CCCCCCCC/C=C\CCCCCCCC)C(=O)OCCC1CCCN1C (stereo not shown) [Compound A-17, 2-(1-Methylpyrrolidin-2-yl)ethyl di((Z)-octadec-9-enyl)carbamate] |  | 101.4 | 129.1 |
| CCCCCCCC/C=C\CCCCCCCCN(CCCCCCCC/C=C\CCCCCCCC)C(=O)OCC1CCCN(C)C1 (stereo not shown) [Compound A-18, (1-Methylpiperidin-3-yl)methyl di((Z)-octadec-9-enyl)carbamate] |  | 112.0 | 138.4 |
| CCCCC/C=C\C/C=C\CCCCCCCCCCN(CCCCCCCCCC/C=C\C/C=C\CCCCC)C(=O)OCCC1CCCN1C (stereo not shown) [Compound A-19, 2-(1-Methylpyrrolidin-2-yl)ethyl di((11Z,14Z)-icosa-11,14-dienyl)carbamate] |  | 91.4 | 140.0 |
| CCCCC/C=C\C/C=C\CCCCCCCCCCN(CCCCCCCCCC/C=C\C/C=C\CCCCC)C(=O)OCC1CCCN(C)C1 (stereo not shown) [Compound A-20, (1-Methylpiperidin-3-yl)methyl di((11Z,14Z)-icosa-11,14-dienyl)carbamate] |  | 95.7 | 145.1 |
| CCCCC/C=C\C/C=C\CCCCCCCCN(CCCCCCCC/C=C\C/C=C\CCCCC)C(=O)OCC1CCCN1C (stereo not shown) [Compound A-21, (1-Methylpyrrolidin-2-yl)methyl di((9Z,12Z)-octadeca-9,12-dien-1-yl)carbamate] |  | 104.8 | 141.0 |
| CCCCC/C=C\C/C=C\CCCCCCCCN(CCCCCCCC/C=C\C/C=C\CCCCC)C(=O)OCCCN1CCCCCCC1 [Compound A-28] |  | 111.3 | 132.0 |
| CCCCC/C=C\C/C=C\CCCCCCCCNCCCCCCCC/C=C\C/C=C\CCCCC [Compound B-1, Di((9Z,12Z)-octadeca-9,12-dienyl)amine] |  |  | 160.6 |
| CCCCC/C=C\C/C=C\CCCCCCCCN(CCCO)CCCCCCCC/C=C\C/C=C\CCCCC [Compound C-1, 3-(Di((9Z,12Z)-octadeca-9,12-dienyl)amino)propan-1-ol] |  | 88.3 | 124.3 |
| CCCCCCCC/C=C\CCCCCCCCN(CCCO)CCCCCCCC/C=C\CCCCCCCC [Compound C-2, 3-(Di((Z)-octadec-9-enyl)amino)propan-1-ol] |  | 91.9 | 125.4 |
| CCCCC/C=C\C/C=C\CCCCCCCCCCN(CCCO)CCCCCCCCCC/C=C\C/C=C\CCCCC [Compound C-3, 3-(Di((11Z,14Z)-icosa-11,14-dienyl)amino)propan-1-ol] |  | 94.1 | 138.4 |

Other lines, results leading:

| Particle diameter of Preparation obtained [1] [nm] | Particle diameter of Preparation obtained [2] [nm] | Particle diameter of Preparation obtained [3] [nm] | SMILES |
| --- | --- | --- | --- |
| 113.0 | 95.9 |  | CCCCC/C=C\C/C=C\CCCCCCCCN(CCCCCCCC/C=C\C/C=C\CCCCC)C(=O)OCCCN(C)C [Compound A-1, 3-(Dimethylamino) propyl di((9Z,12Z)-octadeca-9,12-dienyl)carbamate] |
|  | 93.4 | 139.2 | CCCCC/C=C\C/C=C\CCCCCCCCN(CCCCCCCC/C=C\C/C=C\CCCCC)C(=O)OCCN(C)C [Compound A-5, 2-(Dimethylamino)ethyl di((9Z,12Z)-octadeca-9,12-dienyl)carbamate] |
|  | 93.6 |  | CCCCC/C=C\C/C=C\CCCCCCCCN(CCCCCCCC/C=C\C/C=C\CCCCC)C(=O)OCCC1CCCN1C (stereo not shown) [Compound A-6, 2-(1-Methylpyrrolidin-2-yl)ethyl di((9Z,12Z)-octadeca-9,12-dienyl)carbamate] |
|  | 111.5 | 133.0 | CCCCC/C=C\C/C=C\CCCCCCCCOCCN(CCCCCCCC/C=C\C/C=C\CCCCC)C(=O)OCCCN(C)C [Compound A-12, 3-(Dimethylamino)propyl ((9Z,12Z)-octadeca-9,12-dienyl)(2-((9Z,12Z)-octadeca-9,12-dienyloxy)ethyl)carbamate] |
|  | 103.1 | 135.0 | CCCCC/C=C\C/C=C\CCCCCCCCN(CCCCCCCC/C=C\C/C=C\CCCCC)C(=O)OCCCCN(C)C [Compound A-13, 4-(Dimethylamino)butyl di((9Z,12Z)-octadeca-9,12-dienyl)carbamate] |
|  | 103.4 | 130.6 | CCCCC/C=C\C/C=C\CCCCCCCCOCCN(CCCCCCCC/C=C\C/C=C\CCCCC)C(=O)OCCCN1CCCCC1 [Compound A-29, 3-(Piperidin-1-yl)propyl ((9Z,12Z)-octadeca-9,12-dienyl)(2-((9Z,12Z)-octadeca-9,12-dienyloxy)ethyl)carbamate] |
|  | 106.2 | 130.4 | CCCCC/C=C\C/C=C\CCCCCCCCOCCN(CCCCCCCC/C=C\C/C=C\CCCCC)C(=O)OCCC1CCCN1C (stereo not shown) [Compound A-30] |
|  | 102.2 | 139.1 | CCCCC/C=C\C/C=C\CCCCCCCCOCCN(CCCCCCCC/C=C\C/C=C\CCCCC)C(=O)OCCCN1CCCCCC1 [Compound A-31, 3-(Azepan-1-yl)propyl ((9Z,12Z)-octadeca-9,12-dienyl) (2-((9Z,12Z)-octadeca-9,12-dienyloxy)ethyl)carbamate] |
|  | 101.4 | 124.6 | CCCCC/C=C\C/C=C\CCCCCCCCOCCN(CCCCCCCC/C=C\C/C=C\CCCCC)C(=O)OCC1CCCN(C)C1 (stereo not shown) [Compound A-32, (1-Methylpiperidin-3-yl)methyl ((9Z,12Z)-octadeca-9,12-dienyl)(2-((Z,12Z)-octadeca-9,12-dienyloxy)ethyl)carbamate] |
|  | 92.6 | 140.2 | CCCCC/C=C\C/C=C\CCCCCCCCN(CCOCCCCCCCC/C=C\CCCCCCCC)C(=O)OCCC1CCCN1C (stereo not shown) [Compound A-34, 2-(1-Methylpyrrolidin-2-yl)ethyl (2-((Z)-octadec-9-enyloxy)ethyl)((9Z,12Z)-octadeca-9,12-dienyl)carbamate] |
|  | 115.4 | 137.8 | CCCCC/C=C\C/C=C\CCCCCCCCN(CCOCCCCCCCC/C=C\CCCCCCCC)C(=O)OCCCN(C)C [Compound A-35, 3-(Dimethylamino)propyl (2-((Z)-octadec-9-enyloxy)ethyl)((9Z,12Z)-octadeca-9,12-dienyl)carbamate] |
|  | 127.2 | 126.5 | CCCCC/C=C\C/C=C\CCCCCCCCN(CCOCCCCCCCC/C=C\CCCCCC)C(=O)OCCCN(C)C [Compound A-36, 3-(Dimethylamino)propyl (2-((Z)-hexadec-9-enyloxy)ethyl)((9Z,12Z)-octadeca-9,12-dienyl)carbamate] |
